{"source": "paper PMC2735267", "about": "(Neuropharmacology, 2009)", "key": {"human α3β4-nAChR": {"tested_on": "human α3β4-nAChR", "settings": "Xenopus oocytes; ref Abin-Carriquiry et al., 2006; cited from earlier work"}, "β4*-nAChR [1]": {"molecular_target": "β4*-nAChR (Mus musculus, UniProt Q8R493+Q8R4G9)", "sequence (Q8R493 21-495)": "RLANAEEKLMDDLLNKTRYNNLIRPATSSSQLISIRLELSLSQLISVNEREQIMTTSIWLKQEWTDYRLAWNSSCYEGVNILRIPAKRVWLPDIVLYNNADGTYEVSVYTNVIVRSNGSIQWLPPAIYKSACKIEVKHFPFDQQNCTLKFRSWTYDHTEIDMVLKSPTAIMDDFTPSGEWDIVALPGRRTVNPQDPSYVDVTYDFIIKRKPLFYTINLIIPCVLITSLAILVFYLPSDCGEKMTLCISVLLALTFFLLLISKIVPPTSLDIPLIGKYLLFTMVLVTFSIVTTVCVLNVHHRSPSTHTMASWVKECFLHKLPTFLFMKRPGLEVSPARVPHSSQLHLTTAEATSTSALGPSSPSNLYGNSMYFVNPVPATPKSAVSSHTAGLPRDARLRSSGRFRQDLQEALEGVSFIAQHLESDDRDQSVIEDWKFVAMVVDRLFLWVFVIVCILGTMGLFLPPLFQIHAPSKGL", "sequence (Q8R4G9 26-499)": "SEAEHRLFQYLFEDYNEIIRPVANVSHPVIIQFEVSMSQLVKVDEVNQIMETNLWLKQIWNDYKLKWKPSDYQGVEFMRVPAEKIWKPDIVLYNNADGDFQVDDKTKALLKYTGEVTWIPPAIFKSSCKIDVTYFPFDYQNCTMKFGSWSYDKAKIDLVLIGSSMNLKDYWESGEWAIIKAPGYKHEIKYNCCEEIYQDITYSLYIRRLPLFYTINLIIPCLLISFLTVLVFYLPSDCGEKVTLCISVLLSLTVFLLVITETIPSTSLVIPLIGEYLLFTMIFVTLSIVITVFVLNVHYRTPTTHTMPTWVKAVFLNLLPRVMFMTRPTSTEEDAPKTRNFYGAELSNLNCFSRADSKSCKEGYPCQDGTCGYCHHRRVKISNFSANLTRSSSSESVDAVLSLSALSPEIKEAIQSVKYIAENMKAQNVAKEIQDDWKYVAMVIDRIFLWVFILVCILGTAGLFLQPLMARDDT", "experiment": "biochemical", "assay_type": "binding, C57BL/6J mice"}, "human α4β2": {"molecular_target": "human α4β2", "settings": "read-out: Ki human α4β2; cited from earlier work"}, "α4β2-nAChR": {"tested_on": "α4β2-nAChR", "settings": "cited from earlier work"}, "α4β2* receptors": {"molecular_target": "α4β2* receptors", "settings": "read-out: Ki α4β2* receptors in rat brain; cited from earlier work"}, "[2]": {"tested_on": "[125I]epibatidine binding sites (β2*- and β4*-nAChR)", "design": "species or system C57BL/6J mice", "settings": "inferior colliculus, wild-type"}, "α7* receptors": {"molecular_target": "α7* receptors", "settings": "read-out: Ki α7* receptors in rat brain; cited from earlier work"}, "[3H]dopamine release": {"tested_on": "[3H]dopamine release", "settings": "read-out: EC50 [3H]dopamine release; cited from earlier work"}, "[3]": {"settings": "rats; ref Sloan et al., 1988; cited from earlier work"}, "human α7 nAChR": {"tested_on": "human α7 nAChR", "settings": "read-out: EC50 human α7 nAChR; cited from earlier work"}, "β2*-nAChR [4]": {"molecular_target": "β2*-nAChR (Mus musculus, UniProt O70174+Q9ERK7)", "sequence (O70174 31-629)": "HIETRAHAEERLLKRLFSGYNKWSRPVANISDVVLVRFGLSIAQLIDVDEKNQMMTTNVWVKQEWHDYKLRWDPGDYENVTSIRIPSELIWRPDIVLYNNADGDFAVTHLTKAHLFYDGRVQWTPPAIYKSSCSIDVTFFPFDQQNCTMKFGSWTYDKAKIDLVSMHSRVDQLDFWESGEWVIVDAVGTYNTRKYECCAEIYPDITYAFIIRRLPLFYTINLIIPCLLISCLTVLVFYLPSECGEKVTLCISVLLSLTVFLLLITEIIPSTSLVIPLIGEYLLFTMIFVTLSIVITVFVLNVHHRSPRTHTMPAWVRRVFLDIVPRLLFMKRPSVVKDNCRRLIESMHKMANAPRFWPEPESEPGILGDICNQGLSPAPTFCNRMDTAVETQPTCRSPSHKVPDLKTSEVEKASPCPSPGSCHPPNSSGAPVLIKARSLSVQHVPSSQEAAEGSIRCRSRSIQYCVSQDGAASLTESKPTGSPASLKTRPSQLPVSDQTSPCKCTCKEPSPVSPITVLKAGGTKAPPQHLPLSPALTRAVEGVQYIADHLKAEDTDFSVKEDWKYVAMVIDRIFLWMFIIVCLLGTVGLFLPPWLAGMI", "sequence (Q9ERK7 26-501)": "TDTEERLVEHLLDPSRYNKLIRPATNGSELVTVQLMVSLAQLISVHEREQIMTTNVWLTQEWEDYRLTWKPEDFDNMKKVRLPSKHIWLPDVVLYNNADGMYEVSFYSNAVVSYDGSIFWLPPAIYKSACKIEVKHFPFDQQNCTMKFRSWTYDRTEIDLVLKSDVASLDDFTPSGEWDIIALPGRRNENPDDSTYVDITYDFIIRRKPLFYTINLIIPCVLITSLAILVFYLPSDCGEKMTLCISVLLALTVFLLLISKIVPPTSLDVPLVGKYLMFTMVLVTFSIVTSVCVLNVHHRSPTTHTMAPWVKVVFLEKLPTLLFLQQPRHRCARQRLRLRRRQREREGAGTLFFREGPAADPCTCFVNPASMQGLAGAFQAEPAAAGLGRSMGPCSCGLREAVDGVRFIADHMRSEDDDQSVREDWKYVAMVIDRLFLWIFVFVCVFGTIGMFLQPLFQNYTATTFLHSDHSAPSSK", "experiment": "biochemical", "assay_type": "binding, C57BL/6J mice"}, "human α7": {"molecular_target": "human α7", "settings": "read-out: Ki human α7; cited from earlier work"}, "β2*-nAChR [5]": {"tested_on": "β2*-nAChR", "settings": "ref Luetje and Patrick, 1991; cited from earlier work"}, "β4*-nAChR [6]": {"tested_on": "β4*-nAChR", "settings": "ref Luetje and Patrick, 1991; cited from earlier work"}, "[7]": {"tested_on": "[3H]noradrenaline release", "settings": "read-out: EC50 [3H]noradrenaline release; cited from earlier work"}, "α7-nAChR": {"molecular_target": "α7-nAChR (Mus musculus, UniProt P49582)", "sequence (P49582 23-502)": "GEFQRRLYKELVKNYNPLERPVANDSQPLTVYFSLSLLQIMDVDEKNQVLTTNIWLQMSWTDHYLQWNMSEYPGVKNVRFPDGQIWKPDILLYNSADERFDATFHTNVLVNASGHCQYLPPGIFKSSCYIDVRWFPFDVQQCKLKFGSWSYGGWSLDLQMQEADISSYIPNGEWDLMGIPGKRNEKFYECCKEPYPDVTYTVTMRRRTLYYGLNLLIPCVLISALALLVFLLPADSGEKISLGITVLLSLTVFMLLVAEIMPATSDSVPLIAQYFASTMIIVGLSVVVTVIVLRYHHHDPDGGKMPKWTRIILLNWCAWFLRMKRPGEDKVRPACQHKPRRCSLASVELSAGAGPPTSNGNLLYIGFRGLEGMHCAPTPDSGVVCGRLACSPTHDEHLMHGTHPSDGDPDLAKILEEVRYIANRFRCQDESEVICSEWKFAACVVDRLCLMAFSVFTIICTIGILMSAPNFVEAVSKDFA", "experiment": "biochemical", "assay_type": "binding, C57BL/6J mice"}, "C57BL/6J mice": {"tested_on": "C57BL/6J mice", "experiment": "3-IC-induced hypothermia", "assay_type": "in vivo, mouse"}, "DBA/2J mice": {"tested_on": "DBA/2J mice", "experiment": "3-IC-induced hypothermia", "assay_type": "in vivo, mouse"}, "α7* nAChR binding sites": {"tested_on": "α7* nAChR binding sites", "settings": "ten days 2 mg/kg/h nicotine, DBA/2J, ref Pauly et al., 1991, cited from earlier work"}}, "note": "Where two headings read alike, the source gives them in different places.", "data": [{"smiles": "O=c1c(Br)ccc2n1C[C@@H]1CNC[C@H]2C1", "note": "[3-bromocytisine]", "values": [{"measurement": "agonist efficacy at human α3β4-nAChR", "setting": "human α3β4-nAChR", "result": "full agonist"}]}, {"smiles": "O=c1cccc2n1C[C@@H]1CNC[C@H]2C1", "note": "[cytisine, reference compound]", "values": [{"measurement": "Ki", "setting": "β4*-nAChR [1]", "result": "9.7 ± 1.5", "unit": "nM"}, {"measurement": "Ki", "setting": "human α4β2", "result": 0.6, "unit": "nM"}, {"measurement": "EC50", "setting": "α4β2-nAChR; read-out: EC50 high agonist sensitive form of α4β2-nAChR", "result": 5, "unit": "nM"}, {"measurement": "EC50", "setting": "α4β2-nAChR; read-out: EC50 low agonist sensitive form of α4β2-nAChR", "result": 2000, "unit": "nM"}, {"measurement": "Ki", "setting": "α4β2* receptors", "result": 1.2, "unit": "nM"}, {"measurement": "difference in affinity for the two [125I]epibatidine binding sites", "setting": "[2]", "result": 60, "unit": "fold"}, {"measurement": "Ki", "setting": "α7* receptors", "result": 8000, "unit": "nM"}, {"measurement": "EC50", "setting": "[3H]dopamine release", "result": 280, "unit": "nM"}, {"measurement": "half-life", "setting": "[3]", "result": "longer half-life than nicotine"}, {"measurement": "EC50", "setting": "human α7 nAChR", "result": 83000, "unit": "nM"}, {"measurement": "Ki", "setting": "β2*-nAChR [4]", "result": "0.35 ± 0.01", "unit": "nM"}, {"measurement": "Ki", "setting": "human α7", "result": 30000, "unit": "nM"}, {"measurement": "agonist efficacy at β2*-nAChR", "setting": "β2*-nAChR [5]", "result": "partial agonist"}, {"measurement": "agonist efficacy at β4*-nAChR", "setting": "β4*-nAChR [6]", "result": "full agonist"}, {"measurement": "EC50", "setting": "[7]", "result": 7400, "unit": "nM"}, {"measurement": "Ki", "setting": "α7-nAChR", "result": "1580 ± 180", "unit": "nM"}]}, {"smiles": "CNC1(C)C2CCC(C2)C1(C)C", "note": "(stereo not drawn) [mecamylamine, reference compound]", "values": [{"measurement": "blockade of 3-IC-induced hypothermia", "setting": "C57BL/6J mice; mecamylamine 1 mg/kg before 3-IC 0.2 mg/kg", "result": "complete"}, {"measurement": "3-IC-induced hypothermia after mecamylamine pretreatment", "setting": "C57BL/6J mice; mecamylamine 1 mg/kg ip 10 min before 3-IC 0.2 mg/kg", "result": "0.13 ± 0.09", "unit": "°C"}, {"measurement": "effect of mecamylamine alone on body temperature", "setting": "DBA/2J mice; 1 mg/kg ip, both mice strains", "result": "did not affect body temperature"}, {"measurement": "time of maximal hypothermia after 3-IC injection, mecamylamine pretreated", "setting": "DBA/2J mice; mecamylamine 1 mg/kg + 3-IC 0.2 mg/kg, DBA/2J", "result": 20, "unit": "min"}, {"measurement": "3-IC-induced hypothermia after mecamylamine pretreatment", "setting": "DBA/2J mice; mecamylamine 1 mg/kg ip 10 min before 3-IC 0.2 mg/kg, DBA/2J", "result": "1.13 ± 0.42", "unit": "°C"}]}, {"smiles": "C[N+](C)(C)CCCCCC[N+](C)(C)C", "note": "[hexamethonium, reference compound]", "values": [{"measurement": "effect of hexamethonium alone on body temperature", "setting": "C57BL/6J mice; 10 mg/kg ip, vs saline", "result": "did not affect body temperature"}, {"measurement": "blockade of 3-IC-induced hypothermia", "setting": "C57BL/6J mice; hexamethonium 10 mg/kg", "result": 60, "unit": "%"}, {"measurement": "maximal 3-IC-induced hypothermia after hexamethonium pretreatment", "setting": "C57BL/6J mice; hexamethonium 10 mg/kg 10 min before 3-IC 0.2 mg/kg", "result": "3.75 ± 0.67", "unit": "°C"}, {"measurement": "effect of hexamethonium alone on body temperature", "setting": "DBA/2J mice; 10 mg/kg ip, DBA/2J, vs saline", "result": "modest, but statistically significant, hypothermia"}, {"measurement": "maximal 3-IC-induced hypothermia after hexamethonium pretreatment", "setting": "DBA/2J mice; hexamethonium 10 mg/kg 10 min before 3-IC 0.2 mg/kg, DBA/2J", "result": "5.66 ± 0.45", "unit": "°C"}, {"measurement": "blockade of 3-IC-induced hypothermia", "setting": "DBA/2J mice; hexamethonium 10 mg/kg, DBA/2J", "result": 33, "unit": "%"}]}, {"smiles": "CN1CCC[C@H]1c1cccnc1", "note": "[nicotine]", "values": [{"measurement": "increase in [125I]α-bungarotoxin binding sites", "setting": "α7* nAChR binding sites; caudate putamen", "result": 14.2, "unit": "%"}, {"measurement": "increase in [125I]α-bungarotoxin binding sites", "setting": "α7* nAChR binding sites; dentate gyrus", "result": 12.6, "unit": "%"}, {"measurement": "increase in [125I]α-bungarotoxin binding sites", "setting": "α7* nAChR binding sites; hippocampus", "result": 33, "unit": "%"}, {"measurement": "increase in [125I]α-bungarotoxin binding sites", "setting": "α7* nAChR binding sites; medial habenula", "result": 22.6, "unit": "%"}, {"measurement": "increase in [125I]α-bungarotoxin binding sites", "setting": "α7* nAChR binding sites; substantia nigra", "result": 25.6, "unit": "%"}, {"measurement": "increase in [125I]α-bungarotoxin binding sites", "setting": "α7* nAChR binding sites; zona incerta", "result": 17.6, "unit": "%"}, {"measurement": "difference in affinity for the two [125I]epibatidine binding sites", "setting": "[2]", "result": 20, "unit": "fold"}, {"measurement": "Ki", "setting": "α7-nAChR", "result": "930 ± 100", "unit": "nM"}]}]}
